Publication PMC11876601 (Molecular Systems Biology, 2025)
Like-named read-outs stand apart in the source and are kept apart here.

Columns and labels:
[1] = target: CSNK2B; settings: 5 cell line mix lysate, Kinobeads ε, ref Reinecke et al. (2023), cited from earlier work
[2] = target: TANK; settings: 5 cell line mix lysate, Kinobeads ε, ref Reinecke et al. (2023), cited from earlier work
[3] = system: YES1; set-up: method as in Reinecke et al. (2023); settings: YES1, 5 cell line mix lysate, Kinobeads ε, ref Reinecke et al. (2023), cited from earlier work
[4] = system: ULK1; set-up: method as in Reinecke et al. (2023); settings: ULK1, 5 cell line mix lysate, Kinobeads ε, ref Reinecke et al. (2023), cited from earlier work
[5] = target: IGF1R; set-up: method as in Reinecke et al. (2023); settings: 5 cell line mix lysate, Kinobeads ε, ref Reinecke et al. (2023), cited from earlier work
[6] = system: PRKAB2; set-up: method as in Reinecke et al. (2023); settings: PRKAB2, 5 cell line mix lysate, Kinobeads ε, ref Reinecke et al. (2023), cited from earlier work
[7] = system: Capan-1 cells; test: Drug combination viability screen (ATPlite, 72 h); format: cell-based, human; set-up: AUC: unit not given beside the values; Reponse: unit not given here; settings: for EC50: Homo sapiens, CAPAN-1;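 on AUC: area under vehicle-normalized viability curve scaled 0 to 100 percent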;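 on Curve bottom: fraction of vehicle control viability from four-parameter log-logistic fit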
Protocol: (§1) Cell viability was assessed by measuring ATP levels to indicate metabolic activity.
(§2) Afterward, small amounts were transferred to 384-well intermediate plates (Greiner Bio-One GmbH, Germany). […] For drug combination screening, 1000 to 5000 cells were seeded into 384-well plates (CulturPlate™, Perkin Elmer, MA, USA) using a Multidrop™ Combi Reagent Dispenser (Thermo Scientific, MA, USA) in 50 µl medium per well 24 h prior to drug treatment (seeding densities see Appendix Table S1). […] The final DMSO concentration in each well was 0.2%. […] Eight wells per plate without library drug served as negative controls, and sixteen wells per plate containing 5 µM Staurosporine served as positive controls. Control plates not containing any drug were used to correct for incubation effects, and data quality was assessed by calculation of Z-prime of positive and negative controls according to1 Z-prime=1−3SDpos+3SDneg/[…] where SD is the standard deviation. […] Dose–response curves from the experimental and hypothetical data were compared, and shifts in AUC were used to describe combination effects (AUC∆ = AUChypothetical − AUCexperimental). […] Only combinations with R^2 > 0.8 in both conditions were considered in the synergy analysis.

[8] = system: Dan-G cells; test: Drug combination viability screen (ATPlite, 72 h); format: cell-based, human; set-up: AUC: unit not given beside the values; Reponse: unit not given here; settings: for EC50: Homo sapiens;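 on AUC: area under vehicle-normalized viability curve scaled 0 to 100 percent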;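 on Curve bottom: fraction of vehicle control viability from four-parameter log-logistic fit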
Protocol: as §1, §2

[9] = system: FAMPAC cells; test: Drug combination viability screen (ATPlite, 72 h); format: cell-based, human; set-up: AUC: unit not given beside the values; Reponse: unit not given here; settings: for EC50: Homo sapiens;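 on AUC: area under vehicle-normalized viability curve scaled 0 to 100 percent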;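 on Curve bottom: fraction of vehicle control viability from four-parameter log-logistic fit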
Protocol: as §1, §2

[10] = system: PRKAB1; set-up: method as in Klaeger et al. (2017); settings: lysate 4 cell line mix (Colo205, K-562, MV-4-11, and SK-N-BE(2)), Kinobeads y, ref Klaeger et al. (2017); cited from earlier work
[11] = system: NTRK1; set-up: method as in Klaeger et al. (2017); settings: lysate 4 cell line mix (Colo205, K-562, MV-4-11, and SK-N-BE(2)), Kinobeads y, ref Klaeger et al. (2017); cited from earlier work
[12] = system: STK4; set-up: method as in Klaeger et al. (2017); settings: STK4, 4 cell line mix lysate, Kinobeads y, ref Klaeger et al. (2017); cited from earlier work
[13] = system: MAP4K3; set-up: method as in Klaeger et al. (2017); settings: lysate 4 cell line mix (Colo205, K-562, MV-4-11, and SK-N-BE(2)), Kinobeads y, ref Klaeger et al. (2017); cited from earlier work
[14] = system: MAP3K6; set-up: method as in Klaeger et al. (2017); settings: lysate 4 cell line mix (Colo205, K-562, MV-4-11, and SK-N-BE(2)), Kinobeads y, ref Klaeger et al. (2017); cited from earlier work

COc1cc(N2CCC(N3CCN(C)CC3)CC2)ccc1Nc1ncc(Cl)c(Nc2ccccc2P(C)(C)=O)n1 [Brigatinib]
Kd ([1]; read-out: KDapp): 508 nM
EC50 [1]: 508 nM
pKDapp [1]: 6.29
Kd ([2]; read-out: KDapp): 684 nM
EC50 [2]: 1070 nM
pKDapp [2]: 6.17
EC50 [3]: 821 nM
pKDapp [3]: 6.47
Kd ([3]; read-out: KDapp): 339 nM
EC50 [4]: 56.7 nM
pKDapp [4]: 7.42
Kd ([4]; read-out: KDapp): 37.9 nM
Kd ([5]; read-out: KDapp): 1320 nM
EC50 [5]: 2000 nM
pKDapp [5]: 5.88
EC50 [6]: 546 nM
pKDapp [6]: 6.48
Kd ([6]; read-out: KDapp): 328 nM

Nc1ccn([C@@H]2O[C@H](CO)[C@@H](O)C2(F)F)c(=O)n1 [GEM, Gemcitabine]
Reponse ([7]; Capan-1, R1, 13.72 nM): 1419520
Reponse ([7]; Capan-1, R1, 41.15 nM): 1052200
Reponse ([7]; Capan-1, R1, […] nM): 1039880
Reponse ([7]; Capan-1, R1, 370.37 nM): 891520
Reponse ([7]; Capan-1, R1, 1111.11 nM): 819880
Reponse ([7]; Capan-1, R1, 3333.33 nM): 826400
Reponse ([7]; Capan-1, R1, 10000 nM): 882520
Reponse ([7]; Capan-1, R2, 13.72 nM): 1725080
Reponse ([7]; Capan-1, R2, 41.15 nM): 1554080
Reponse ([7]; Capan-1, R2, […] nM): 1198840
Reponse ([7]; Capan-1, R2, 370.37 nM): 1201400
Reponse ([7]; Capan-1, R2, 1111.11 nM): 991280
Reponse ([7]; Capan-1, R2, 3333.33 nM): 798760
Reponse ([7]; Capan-1, R2, 10000 nM): 1054200
Curve bottom ([7]; Capan-1, GEM curve fit): 0.16
Curve effect size ([7]; Capan-1, GEM curve fit): 0.84
Curve slope ([7]; Capan-1, GEM curve fit): 1.86
Curve top ([7]; Capan-1, GEM curve fit): 1.03
AUC ([7]; Capan-1, GEM curve fit, in %): 31.71
EC50 ([7]; read-out: EC50): 1.26 nM
EC50 ([7]; read-out: pEC50 (converted)): 1.26 nM
Reponse ([8]; Dan-G, R1, 13.72 nM): 414760
Reponse ([8]; Dan-G, R1, 41.15 nM): 446720
Reponse ([8]; Dan-G, R1, […] nM): 403560
Reponse ([8]; Dan-G, R1, 370.37 nM): 418200
Reponse ([8]; Dan-G, R1, 1111.11 nM): 322600
Reponse ([8]; Dan-G, R1, 3333.33 nM): 330080
Reponse ([8]; Dan-G, R1, 10000 nM): 365160
Reponse ([8]; Dan-G, R2, 13.72 nM): 688800
Reponse ([8]; Dan-G, R2, 41.15 nM): 616960
Reponse ([8]; Dan-G, R2, […] nM): 613120
Reponse ([8]; Dan-G, R2, 370.37 nM): 664240
Reponse ([8]; Dan-G, R2, 1111.11 nM): 563000
Reponse ([8]; Dan-G, R2, 3333.33 nM): 536360
Reponse ([8]; Dan-G, R2, 10000 nM): 535080
Curve bottom ([8]; Dan-G, GEM curve fit): 0.11
Curve effect size ([8]; Dan-G, GEM curve fit): 0.89
Curve slope ([8]; Dan-G, GEM curve fit): 3.23
Curve top ([8]; Dan-G, GEM curve fit): 0.99
AUC ([8]; Dan-G, GEM curve fit, in %): 25.98
EC50 ([8]; read-out: EC50): 1.1 nM
EC50 ([8]; read-out: pEC50 (converted)): 1.1 nM
Reponse ([9]; FAMPAC, R1, 13.72 nM): 385920
Reponse ([9]; FAMPAC, R1, 41.15 nM): 215680
Reponse ([9]; FAMPAC, R1, […] nM): 157840
Reponse ([9]; FAMPAC, R1, 370.37 nM): 175320
Reponse ([9]; FAMPAC, R1, 1111.11 nM): 225320
Reponse ([9]; FAMPAC, R1, 3333.33 nM): 238760
Reponse ([9]; FAMPAC, R1, 10000 nM): 195520
Reponse ([9]; FAMPAC, R2, 13.72 nM): 606360
Reponse ([9]; FAMPAC, R2, 41.15 nM): 377000
Reponse ([9]; FAMPAC, R2, […] nM): 333400
Reponse ([9]; FAMPAC, R2, 370.37 nM): 317560
Reponse ([9]; FAMPAC, R2, 1111.11 nM): 328240
Reponse ([9]; FAMPAC, R2, 3333.33 nM): 349400
Reponse ([9]; FAMPAC, R2, 10000 nM): 314920
Curve bottom ([9]; FAMPAC, GEM curve fit): 0.05
Curve effect size ([9]; FAMPAC, GEM curve fit): 0.95
Curve slope ([9]; FAMPAC, GEM curve fit): 2.01
Curve top ([9]; FAMPAC, GEM curve fit): 0.99
AUC ([9]; FAMPAC, GEM curve fit, in %): 25.43
EC50 ([9]; read-out: EC50): 1.71 nM
EC50 ([9]; read-out: pEC50 (converted)): 1.7 nM

C[C@]12O[C@H](C[C@]1(O)CO)n1c3ccccc3c3c4c(c5c6ccccc6n2c5c31)CNC4=O [Lestaurtinib]
EC50 [10]: 1790 nM
EC50 [11]: 795 nM
EC50 [12]: 59.4 nM
EC50 [14]: 458 nM
